This note sets out measurements from ChEMBL document CHEMBL3217511, “Structure-activity evaluation of new uracil-based non-nucleoside inhibitors of HIV reverse transcriptase” (Medchemcomm, 2013).

Experiment [1] deals with Human immunodeficiency virus type 1 reverse transcriptase (Human immunodeficiency virus 1, UniProt Q72547). Description: Inhibition of wild-type HIV1 Reverse transcriptase p51/p66 after 30 mins using alpha-[32P]dATP by liquid scintillation counting.
Experiment [2] has as its system Human immunodeficiency virus 1. Description: Inhibition of HIV1 Reverse transcriptase p51/p66 G190A mutant at 10 uM after 30 mins using alpha-[32P]dATP by liquid scintillation counting.
The target in experiment [3] is Human immunodeficiency virus type 1 reverse transcriptase (Human immunodeficiency virus 1, UniProt Q72547, K103N). Nature of the experiment: Inhibition of HIV1 Reverse transcriptase p51/p66 K103N mutant after 30 mins using alpha-[32P]dATP by liquid scintillation counting.
Experiment [4] deals with Human immunodeficiency virus type 1 reverse transcriptase (Human immunodeficiency virus 1), Q72547 [K103N,Y181C]. Description: Inhibition of HIV1 Reverse transcriptase p51/p66 K103N/Y181C mutant at 10 uM after 30 mins using alpha-[32P]dATP by liquid scintillation counting.
Experiment [5] concerns Human immunodeficiency virus type 1 reverse transcriptase (Human immunodeficiency virus 1), Q72547 [L100I]. Description: Inhibition of HIV1 Reverse transcriptase p51/p66 L100I mutant at 10 uM after 30 mins using alpha-[32P]dATP by liquid scintillation counting.
Experiment [6] deals with Human immunodeficiency virus type 1 reverse transcriptase (Human immunodeficiency virus 1) (UniProt Q72547). Nature of the experiment: Inhibition of wild-type HIV1 Reverse transcriptase p51/p66 at 10 uM after 30 mins using alpha-[32P]dATP by liquid scintillation counting.
The subject of experiment [7] is Human immunodeficiency virus type 1 reverse transcriptase (Human immunodeficiency virus 1), Q72547 [V106A]. Description: Inhibition of HIV1 Reverse transcriptase p51/p66 V106A mutant at 10 uM after 30 mins using alpha-[32P]dATP by liquid scintillation counting.
Experiment [8] deals with Human immunodeficiency virus type 1 reverse transcriptase (Human immunodeficiency virus 1, UniProt Q72547, K103N/Y181C). Nature of the experiment: Inhibition of HIV1 Reverse transcriptase p51/p66 K103N/Y181C mutant after 30 mins using alpha-[32P]dATP by liquid scintillation counting.
The subject of experiment [9] is Human immunodeficiency virus 1. Nature of the experiment: Selectivity ratio of IC50 for HIV1 Reverse transcriptase p51/p66 L100I mutant to IC50 for wild-type HIV1 Reverse transcriptase p51/p66.
Experiment [10] has as its target Human immunodeficiency virus type 1 reverse transcriptase (Human immunodeficiency virus 1, UniProt Q72547, L100I). Nature of the experiment: Inhibition of HIV1 Reverse transcriptase p51/p66 L100I mutant after 30 mins using alpha-[32P]dATP by liquid scintillation counting.
The subject of experiment [11] is Human immunodeficiency virus 1. Nature of the experiment: Selectivity ratio of IC50 for HIV1 Reverse transcriptase p51/p66 K103N mutant to IC50 for wild-type HIV1 Reverse transcriptase p51/p66.
Experiment [12] deals with Human immunodeficiency virus type 1 reverse transcriptase (Human immunodeficiency virus 1, UniProt Q72547, Y181C). Nature of the experiment: Inhibition of HIV1 Reverse transcriptase p51/p66 Y181C mutant after 30 mins using alpha-[32P]dATP by liquid scintillation counting.
The target in experiment [13] is Human immunodeficiency virus type 1 reverse transcriptase (Human immunodeficiency virus 1, UniProt Q72547, V106A). Description: Inhibition of HIV1 Reverse transcriptase p51/p66 V106A mutant after 30 mins using alpha-[32P]dATP by liquid scintillation counting.
The subject of experiment [14] is Human immunodeficiency virus type 1 reverse transcriptase (Human immunodeficiency virus 1), Q72547 [K103N]. Nature of the experiment: Inhibition of HIV1 Reverse transcriptase p51/p66 K103N mutant at 10 uM after 30 mins using alpha-[32P]dATP by liquid scintillation counting.
A short description of experiment [15]: Inhibition of HIV1 Reverse transcriptase p51/p66 G190A mutant after 30 mins using alpha-[32P]dATP by liquid scintillation counting. Set-up: species or system Human immunodeficiency virus 1.
In experiment [16] the test system is Human immunodeficiency virus type 1 reverse transcriptase (Human immunodeficiency virus 1), Q72547 [Y181C]. Nature of the experiment: Inhibition of HIV1 Reverse transcriptase p51/p66 Y181C mutant at 10 uM after 30 mins using alpha-[32P]dATP by liquid scintillation counting.

In the case of `O=C(Cc1ccccc1)OC1C=CC(n2ccc(=O)n(Cc3ccccc3)c2=O)C1` (centres undefined), inhibition in experiment [1] was half-maximal at 52 µM (IC50).
Regarding `O=C(CCc1ccccc1)OC1C=CC(n2ccc(=O)n(Cc3cc(F)cc(F)c3)c2=O)C1` (centres undefined), in [1], the IC50 (in general, the point on the concentration scale where inhibition reaches its midpoint) was above 100 µM.
Same read-out and setting: as for `O=C(OC1C=CC(n2ccc(=O)[nH]c2=O)C1)c1cc(Cl)cc(Cl)c1` (centres undefined), the figure is above 100 µM; as for `O=C(Oc1ccc(Cn2ccc(=O)[nH]c2=O)cc1)c1ccccc1`, above 100 µM.
As for `Cc1cc(C)cc(C(=O)OC2C=CC(n3ccc(=O)n(Cc4ccccc4)c3=O)C2)c1` (centres undefined), the inhibition (commonly the percentage by which the read-out fell short of the control) is below 10% in experiment [2]; 23% in experiment [4]; 77% in experiment [5]; 52% in experiment [6]; 14% in experiment [7]; 37% in experiment [14]. Further, in [16], the inhibition was 24%. In addition, the IC50 in [3] was 17.3 µM; in experiment [8], above 20 µM; in experiment [10], 2100 nM; in [12], above 20 µM; in experiment [13], above 20 µM; in [15], above 100 µM. The compound also returned an IC50 in experiment [1] of 8.2 µM. For the same compound, the values for the Ratio IC50 in [9] and in experiment [11] were 0.26 and 2.11, respectively.
In experiment [1], `O=C(Oc1cccc(Cn2ccc(=O)n(Cc3ccccc3)c2=O)c1)c1ccccc1` returned an IC50 of 32.3 µM.
Same read-out and setting: as for `O=C(Cc1ccccc1)OC1C=CC(n2ccc(=O)n(Cc3cc(F)cc(F)c3)c2=O)C1` (centres undefined), the figure is above 100 µM.
Still for that read-out and setting: to `O=C(Oc1cccc(Cn2ccc(=O)[nH]c2=O)c1)c1ccccc1` belongs above 100 µM; to `N#Cc1cccc(C(=O)OC2C=CC(n3ccc(=O)n(Cc4ccccc4)c3=O)C2)c1` (centres undefined), above 100 µM.
Still for that read-out and setting: to `O=C(CCc1ccccc1)OC1C=CC(n2ccc(=O)n(Cc3ccccc3)c2=O)C1` (centres undefined) belongs above 100 µM; to `O=C(Oc1ccc(Cn2ccc(=O)n(Cc3ccccc3)c2=O)cc1)c1ccccc1`, above 100 µM.
In experiment [1], `O=C(OC1C=CC(n2ccc(=O)n(C(=O)c3cc(Cl)cc(Cl)c3)c2=O)C1)c1cc(Cl)cc(Cl)c1` (centres undefined) had an IC50 above 100 µM.
The same measure, in the same setting: as for `Cc1cc(C)cc(C(=O)OC2C=CC(n3ccc(=O)n(C(=O)c4cc(C)cc(C)c4)c3=O)C2)c1` (centres undefined), the figure is above 100 µM; as for `Cc1cc(C)cc(C(=O)OC2C=CC(n3ccc(=O)[nH]c3=O)C2)c1` (centres undefined), above 100 µM.
On the same count and under the same terms, to `O=C(Oc1ccccc1Cn1ccc(=O)[nH]c1=O)c1ccccc1` belongs above 100 µM; to `O=C(Oc1ccccc1Cn1ccc(=O)n(Cc2ccccc2)c1=O)c1ccccc1`, above 100 µM.
Regarding `O=C(OC1C=CC(n2ccc(=O)n(Cc3ccccc3)c2=O)C1)c1ccccc1` (centres undefined), the inhibition was below 10% in experiment [2]; 15% in [4]; 83% in [5]; 45% in experiment [6]; 12% in experiment [7]; 26% in [14]. Moreover, the inhibition in experiment [16] turned out to be 11%. This compound also gave an IC50 in experiment [15] above 50 µM.
Consider `O=C(OC1C=CC(n2ccc(=O)n(Cc3ccccc3)c2=O)C1)c1cc(Cl)cc(Cl)c1` (centres undefined), for which the inhibition in [2] is below 10%; in [4], 25%; in experiment [5], 89%; in experiment [6], 59%; in [7], 20%; in [14] it was 53%. The compound further showed an inhibition in experiment [16] of 17%. Moreover, the IC50 in [3] was 8.8 µM; in experiment [8], above 10 µM; in experiment [10], 1290 nM; in experiment [12] it was above 10 µM; in experiment [13], above 10 µM; in experiment [15], above 100 µM. The compound also yielded an IC50 in experiment [1] of 5.1 µM. The results for the Ratio IC50 in experiment [9] and in experiment [11] were 0.25 and 1.69, respectively.
In [1], `N#Cc1cccc(C(=O)OC2C=CC(n3ccc(=O)[nH]c3=O)C2)c1` (centres undefined) displayed an IC50 above 100 µM.
The same measure, in the same setting: as for `O=C(Oc1cccc(Cn2ccc(=O)[nH]c2=O)c1)c1cc(Cl)cc(Cl)c1`, the figure is 42 µM.
On to `Cc1ccnc2c1NC(=O)c1cccnc1N2C1CC1` [NEVIRAPINE], for which the inhibition in experiment [2] is below 10%; in experiment [4], below 10%; in [5], 48%; in experiment [7] it was below 10%; in experiment [14], below 10%; in experiment [16], below 10%. This compound returned a 50% inhibitory concentration (IC50) in experiment [15] above 2000 µM.
